In ChEMBL document CHEMBL3885861, “Open TG-GATES”:

Species on record: Rattus norvegicus
Assay: Open TG-GATES - Regimen: Daily Repeat
Assay type: toxicity, organism-based, Sprague-Dawley
Design: regimen Daily Repeat, gender Male, age 6 weeks
Conditions: in vivo, po, 15 mg/kg, route gavage, dose level Middle; for APTT / Bas / Eos / Fbg / Hb / Ht / Lym / MCH / MCHC / MCV / Mono / Neu / PT / Plat / RBC / Ret / WBC: tissue Blood; for KIDNEY_L / KIDNEY_R / KIDNEY_TOTAL: tissue Kidney; for LIVER: tissue Liver; for A/G / ALP / ALT / AST / BUN / CRE / Ca / Cl / DBIL / GLC / IP / K / LDH / Na / PL / RALB / TBIL / TC / TG / TP / gamma-GTP: tissue Plasma

CC(=N)S [THIOACETAMIDE]
TERMINAL_BW (72 h, time 3 day): 220.4 g
APTT (72 h, time 3 day): 16.6 s
Bas (72 h, time 3 day): 0%
Eos (72 h, time 3 day): 1%
Fbg (72 h, time 3 day): 254.2 mg/dL
Hb (72 h, time 3 day): 14 g/dL
Ht (72 h, time 3 day): 42.5%
Lym (72 h, time 3 day): 84%
MCH (72 h, time 3 day): 20.9 pg
MCHC (72 h, time 3 day): 33.1%
MCV (72 h, time 3 day): 63.2 fL
Mono (72 h, time 3 day): 5.2%
Neu (72 h, time 3 day): 9.6%
PT (72 h, time 3 day): 12.2 s
Plat (72 h, time 3 day): 113 x10_4/uL
RBC (72 h, time 3 day): 672.4 x10_4/ul
Ret (72 h, time 3 day): 5.5%
WBC (72 h, time 3 day): 167.1 x10_2/uL
KIDNEY_L (72 h, time 3 day): 1 g
KIDNEY_R (72 h, time 3 day): 1 g
KIDNEY_TOTAL (72 h, time 3 day): 1.9 g
LIVER (72 h, time 3 day): 11.1 g
A/G (72 h, time 3 day): 2.1
ALP (72 h, time 3 day): 896 IU/L
ALT (72 h, time 3 day): 29.2 IU/L
AST (72 h, time 3 day): 57.2 IU/L
BUN (72 h, time 3 day): 17 mg/dL
CRE (72 h, time 3 day): 0.5 mg/dL
Ca (72 h, time 3 day): 10.5 mg/dL
Cl (72 h, time 3 day): 105.8 meq/L
DBIL (72 h, time 3 day): 0.02 mg/dL
GLC (72 h, time 3 day): 176.2 mg/dL
IP (72 h, time 3 day): 7.5 mg/dL
K (72 h, time 3 day): 5 meq/L
LDH (72 h, time 3 day): 92.8 IU/L
Na (72 h, time 3 day): 137.6 meq/L
PL (72 h, time 3 day): 159.4 mg/dL
RALB (72 h, time 3 day): 3.9 g/dL
TBIL (72 h, time 3 day): 0.3 mg/dL
TC (72 h, time 3 day): 76.4 mg/dL
TG (72 h, time 3 day): 148 mg/dL
TP (72 h, time 3 day): 5.8 g/dL
gamma-GTP (72 h, time 3 day): 2.4 IU/L
TERMINAL_BW ([…], time 7 day): 248.4 g
TERMINAL_BW ([…], time 14 day): 276.3 g
TERMINAL_BW ([…], time 28 day): 324.2 g
APTT ([…], time 7 day): 16.4 s
Bas ([…], time 7 day): 0%
Eos ([…], time 7 day): 1%
Fbg ([…], time 7 day): 247.2 mg/dL
Hb ([…], time 7 day): 13.9 g/dL
Ht ([…], time 7 day): 42.1%
Lym ([…], time 7 day): 82.8%
MCH ([…], time 7 day): 20.8 pg
MCHC ([…], time 7 day): 33%
MCV ([…], time 7 day): 63 fL
Mono ([…], time 7 day): 5.4%
Neu ([…], time 7 day): 11.2%
PT ([…], time 7 day): 12.7 s
Plat ([…], time 7 day): 108.4 x10_4/uL
RBC ([…], time 7 day): 668.4 x10_4/ul
Ret ([…], time 7 day): 4.5%
WBC ([…], time 7 day): 170.4 x10_2/uL
APTT ([…], time 14 day): 16.4 s
Bas ([…], time 14 day): 0%
Eos ([…], time 14 day): 1%
Fbg ([…], time 14 day): 239.8 mg/dL
Hb ([…], time 14 day): 14.7 g/dL
Ht ([…], time 14 day): 44%
Lym ([…], time 14 day): 79.8%
MCH ([…], time 14 day): 19.7 pg
MCHC ([…], time 14 day): 33.3%
MCV ([…], time 14 day): 59.3 fL
Mono ([…], time 14 day): 7.6%
Neu ([…], time 14 day): 11.8%
PT ([…], time 14 day): 13 s
Plat ([…], time 14 day): 111.2 x10_4/uL
RBC ([…], time 14 day): 743.4 x10_4/ul
Ret ([…], time 14 day): 3.5%
WBC ([…], time 14 day): 202.6 x10_2/uL
APTT ([…], time 28 day): 16.6 s
Bas ([…], time 28 day): 0%
Eos ([…], time 28 day): 1%
Fbg ([…], time 28 day): 240.2 mg/dL
Hb ([…], time 28 day): 15.1 g/dL
Ht ([…], time 28 day): 44.7%
Lym ([…], time 28 day): 75.4%
MCH ([…], time 28 day): 19 pg
MCHC ([…], time 28 day): 33.9%
MCV ([…], time 28 day): 56.1 fL
Mono ([…], time 28 day): 8.6%
Neu ([…], time 28 day): 14.8%
PT ([…], time 28 day): 11.9 s
Plat ([…], time 28 day): 116.1 x10_4/uL
RBC ([…], time 28 day): 798.6 x10_4/ul
Ret ([…], time 28 day): 3.2%
WBC ([…], time 28 day): 149.2 x10_2/uL
KIDNEY_L ([…], time 7 day): 1.1 g
KIDNEY_R ([…], time 7 day): 1.1 g
KIDNEY_TOTAL ([…], time 7 day): 2.2 g
KIDNEY_L ([…], time 14 day): 1.2 g
KIDNEY_R ([…], time 14 day): 1.2 g
KIDNEY_TOTAL ([…], time 14 day): 2.3 g
KIDNEY_L ([…], time 28 day): 1.2 g
KIDNEY_R ([…], time 28 day): 1.2 g
KIDNEY_TOTAL ([…], time 28 day): 2.4 g
LIVER ([…], time 7 day): 12.8 g
LIVER ([…], time 14 day): 12.7 g
LIVER ([…], time 28 day): 14.1 g
A/G ([…], time 7 day): 2
ALP ([…], time 7 day): 926.6 IU/L
ALT ([…], time 7 day): 29.4 IU/L
AST ([…], time 7 day): 54.2 IU/L
BUN ([…], time 7 day): 19 mg/dL
CRE ([…], time 7 day): 0.6 mg/dL
Ca ([…], time 7 day): 10.5 mg/dL
Cl ([…], time 7 day): 105.6 meq/L
DBIL ([…], time 7 day): 0.016 mg/dL
GLC ([…], time 7 day): 172.4 mg/dL
IP ([…], time 7 day): 7.9 mg/dL
K ([…], time 7 day): 5.1 meq/L
LDH ([…], time 7 day): 97.4 IU/L
Na ([…], time 7 day): 136.2 meq/L
PL ([…], time 7 day): 152.6 mg/dL
RALB ([…], time 7 day): 4 g/dL
TBIL ([…], time 7 day): 0.3 mg/dL
TC ([…], time 7 day): 75.6 mg/dL
TG ([…], time 7 day): 114.8 mg/dL
TP ([…], time 7 day): 5.9 g/dL
gamma-GTP ([…], time 7 day): 2.4 IU/L
A/G ([…], time 14 day): 2.1
ALP ([…], time 14 day): 760.2 IU/L
ALT ([…], time 14 day): 26.2 IU/L
AST ([…], time 14 day): 47.2 IU/L
BUN ([…], time 14 day): 20.4 mg/dL
CRE ([…], time 14 day): 0.6 mg/dL
Ca ([…], time 14 day): 10.3 mg/dL
Cl ([…], time 14 day): 104.8 meq/L
DBIL ([…], time 14 day): 0.05 mg/dL
GLC ([…], time 14 day): 173.8 mg/dL
IP ([…], time 14 day): 7.3 mg/dL
K ([…], time 14 day): 4.8 meq/L
LDH ([…], time 14 day): 90.2 IU/L
Na ([…], time 14 day): 134.2 meq/L
PL ([…], time 14 day): 127 mg/dL
RALB ([…], time 14 day): 3.9 g/dL
TBIL ([…], time 14 day): 0.3 mg/dL
TC ([…], time 14 day): 59.4 mg/dL
TG ([…], time 14 day): 87.4 mg/dL
TP ([…], time 14 day): 5.8 g/dL
gamma-GTP ([…], time 14 day): 1.6 IU/L
A/G ([…], time 28 day): 2
ALP ([…], time 28 day): 660.6 IU/L
ALT ([…], time 28 day): 29.8 IU/L
AST ([…], time 28 day): 35.4 IU/L
BUN ([…], time 28 day): 20.4 mg/dL
CRE ([…], time 28 day): 0.6 mg/dL
Ca ([…], time 28 day): 10 mg/dL
Cl ([…], time 28 day): 105.4 meq/L
DBIL ([…], time 28 day): 0.014 mg/dL
GLC ([…], time 28 day): 164.8 mg/dL
IP ([…], time 28 day): 6.3 mg/dL
K ([…], time 28 day): 4.5 meq/L
LDH ([…], time 28 day): 114.6 IU/L
Na ([…], time 28 day): 134 meq/L
PL ([…], time 28 day): 125.4 mg/dL
RALB ([…], time 28 day): 3.9 g/dL
TBIL ([…], time 28 day): 0.2 mg/dL
TC ([…], time 28 day): 60.4 mg/dL
TG ([…], time 28 day): 62.4 mg/dL
TP ([…], time 28 day): 5.8 g/dL
gamma-GTP ([…], time 28 day): 1.6 IU/L
